Measured values taken from US20230031406A1, “COMPOUNDS AND COMPOSITIONS FOR TREATING CONDITIONS ASSOCIATED WITH NLRP ACTIVITY” (Novartis AG, priority 2018, published 2023).
Where two headings read alike, the source gives them in different places. Blank lines part the entries; values can stand above or below the compound they belong to.

Tested on: PMA-differentiated THP-1 cells
Test: IL-1β production in PMA-differentiated THP-1 cells stimulated with gramicidin (hTHP-1 assay containing 2% fetal bovine serum; Procedures 1 and 2)
Assay type: cell-based, human
Details: 2% fetal bovine serum
Outline: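 THP-1 cells were differentiated with PMA (20 ng/ml, 16-18 h), detached, and plated at 50,000 cells/well in RPMI 1640 with 2% FBS. They were pre-treated with compound (0.0017–100 μM, 0.37% DMSO) for 1 h, then stimulated with gramicidin (5 μM) for 2 h. Supernatant IL-1β was measured by HTRF.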

[1] = Table B1, class symbols, read-out: Average IC50 of compounds in hTHP-1 assay: hTHP-1 IC50
[2] = Homo sapiens, THP-1, Table B2, class symbols, read-out: hTHP-1 IC50
[3] = Table B2, class symbols, read-out: hTHP-1 IC50
[4] = Homo sapiens, THP-1, Table B3, hTHP-1 assay, class symbols, read-out: IC50

Compound: CC(C)(O)c1cc(S(N)(=O)=NC(=O)Nc2c3c(nc4c2CCC4)CCC3)nn1-c1ccccc1 (single isomer, unassigned) [Compound 159a, (R) or (S)-N′-((1,2,3,5,6,7-hexahydrodicyclo-penta[b,e]pyridin-8-yl)carbamoyl)-5-(2-hydroxypropan-2-yl)-1-phenyl-1H-pyrazole-3-sulfonimidamide]
- IC50 [1]: 1000 to 5000 nM

Compound: CC1(C)CCc2c1nc1c(c2NC(=O)N=S(N)(=O)c2cnn3c2OCCC3)CCC1 (stereo not shown) [Compound 304, N′-((3,3-dimethyl-1,2,3,5,6,7-hexahydrodicyclopenta[b,e]pyridin-8-yl)carbamoyl)-6,7-dihydro-5H-pyrazolo[5,1-b][1,3]oxazine-3-sulfonimidamide]
- IC50 [2]: 1000 to 5000 nM

Compound: Cc1c(C(F)(F)F)nc2c(c1NC(=O)N=[S@@](N)(=O)c1cnc(C(C)(C)O)s1)CCC2C (stereo partly shown) [Compound 608d]
- IC50 [2]: 1000 to 5000 nM

Compound: CC(C)c1cnc(F)c(C(C)C)c1NC(=O)N=S(N)(=O)c1cnc(C(C)(C)O)s1 (single isomer, unassigned) [Compound 115a, (S) or (R)-N′-((2-fluoro-3,5-diisopropylpyridin-4-yl)carbamoyl)-2-(2-hydroxypropan-2-yl)thiazole-5-sulfonimidamide]
- IC50 [3]: 5000 to 30000 nM

Compound: Cc1c(C2CC2)nc2c(c1NC(=O)N=S(N)(=O)c1ccn(C(F)F)n1)CCC2 (single isomer, unassigned) [Compound 676a, (S) or (R)-N′-((2-cyclopropyl-3-methyl-6,7-dihydro-5H-cyclopenta[b]pyridin-4-yl)carbamoyl)-1-(difluoromethyl)-1H-pyrazole-3-sulfonimidamide]
- IC50 (Homo sapiens, THP-1, Table B2, numeric bounds, read-out: hTHP-1 IC50): > 30000 nM

Compound: COC(C)(C)c1ncc(S(N)(=O)=NC(=O)Nc2c3c(nc4c2CCC4)CCC3)s1 (stereo not shown) [Compound 693, N′-((1,2,3,5,6,7-hexahydrodicyclopenta[b,e]pyridin-8-yl)carbamoyl)-2-(2-methoxypropan-2-yl)thiazole-5-sulfonimidamide]
- IC50 [2]: 1000 to 5000 nM

Compound: CC1(C)CCc2c1nc1c(c2NC(=O)N=S(N)(=O)c2cnc(C(C)(O)CO)s2)CCC1 (single isomer, unassigned) [Compound 201f, (R, S) and (S, S) or (S, R) and (R, R)-2-(1.2-Dihydroxvpropan-2-yl)-N′-((3,3-dimethyl-1,2,3.5.6.7-hexahydrodicyclopenta [b,e]pvridin-8-yl)carbamoyl)thiazole-5-sulfonimidamide]
- IC50 [3]: 5000 to 30000 nM

Compound: CC1CCc2c1nc1c(c2NC(=O)N=S(N)(=O)c2sc(C(C)(C)O)nc2CO)CCC1 (single isomer, unassigned) [Compound 168bb, (R,R) or (R,S)-4-(hydroxymethyl)-2-(2-hydroxypropan-2-yl)-N′-((3-methyl-1,2,3,5,6,7-hexahydrodicyclo-penta[b,c]pyridin-8-yl)carbamoyl)thiazole-5-sulfonimidamide]
- IC50 [1]: 1000 to 5000 nM

Compound: CC(C)n1cc(S(N)(=O)=NC(=O)Nc2c3c(nc4c2CCC4(C)C)CCC3)c(CO)n1 (single isomer, unassigned) [Compound 653a, (R) or (S)-N′-((3,3-dimethyl-1,2,3,5,6,7-hexahydrodicyclopenta [b,e]pyridin-8-yl)carbamoyl)-3-(hydroxymethyl)-1-isopropyl-1H-pyrazole-4-sulfonimidamide]
- IC50 [2]: 5000 to 30000 nM

Compound: CCn1ccc(S(N)(=O)=NC(=O)Nc2c3c(nc4c2CCC42CC2)CCC3)n1 (stereo not shown) [Compound 604, 1-Ethyl-N′-((1′,5′,6′,7′-tetrahydro-2′H-spiro[cyclopropane-1,3′-dicyclopenta[b,e]pyridin]-8′-yl)carbamoyl)-1H-pyrazole-3-sulfonimidamide]
- IC50 [2]: 200 to 1000 nM

Compound: CCc1nc2c(c(NC(=O)N=S(N)(=O)c3cc(C(C)(C)O)cs3)c1C1CC1)CCC2 (single isomer, unassigned) [Compound 654a, (S) or (R)-N′-((3-cyclopropyl-2-ethyl-6,7-dihydro-5H-cyclopenta[b]pyridin-4-yl)carbamoyl)-4-(2-hydroxypropan-2-yl)thiophene-2-sulfonimidamide]
- IC50 [3]: 1000 to 5000 nM

Compound: Cc1c(C2CC2)nc2c(c1NC(=O)N=S(N)(=O)c1cc(C(C)(C)O)n(-c3ccccc3)n1)CCC2 (single isomer, unassigned) [Compound 651b, (R) or (S)-N′-((2-cyclopropyl-3-methyl-6,7-dihydro-5H-cyclopenta[b]pyridin-4-yl)carbamoyl)-5-(2-hydroxypropan-2-yl)-1-phenyl-1H-pyrazole-3-sulfonimidamide]
- IC50 [3]: 1000 to 5000 nM

Compound: CC(C)c1nc(CO)c(S(N)(=O)=NC(=O)Nc2c3c(nc4c2CCC4(C)C)CCC3)s1 (single isomer, unassigned) [Compound 680b, (R) or (S)-N′-((3,3-dimethyl-1,2,3,5,6,7-hexahydrodicyclopenta [b,e]pyridin-8-yl)carbamoyl)-4-(hydroxymethyl)-2-isopropylthiazole-5-sulfonimidamide]
- IC50 [3]: 1000 to 5000 nM

Compound: CCC1CCc2c1nc1c(c2NC(=O)N=S(N)(=O)c2sc(C(C)(C)O)cc2F)CCC1 (single isomer, unassigned) [Compound 671b, (S, R) or (S, S) or (R, S) or (R, R)-N′-((3-ethyl-1,2,3,5,6,7-hexahydrodicyclopenta [b,e]pyridin-8-yl)carbamoyl)-3-fluoro-5-(2-hydroxypropan-2-yl) thiophene-2-sulfonimidamide]
- IC50 [3]: 5000 to 30000 nM

Compound: Cc1c(C(F)(F)F)nc2c(c1NC(=O)N=S(N)(=O)c1sc(C(C)(C)O)cc1F)CCC2 (single isomer, unassigned) [Compound 632b, (S) or (R)-3-Fluoro-5-(2-hydroxypropan-2-yl)-N′-((3-methyl-2-(trifluoromethyl)-6,7-dihydro-5H-cyclopenta[b]pyridin-4-yl)carbamoyl) thiophene-2-sulfonimidamide]
- IC50 [3]: 5000 to 30000 nM

Compound: CC(C)(O)c1sc(S(N)(=O)=NC(=O)Nc2c3c(nc4c2CCC4)CCC3)cc1Cl (stereo not shown) [Compound 688, 4-Chloro-N′-((1,2,3,5,6,7-hexahydrodicyclopenta[b, e]pyridin-8-yl)carbamoyl)-5-(2-hydroxypropan-2-yl)thiophene-2-sulfonimidamide]
- IC50 [2]: 1000 to 5000 nM

Compound: CC(C)(O)c1cc(F)c(S(N)(=O)=NC(=O)Nc2c3c(nc4c2CCC4)CCC3)s1 (stereo not shown) [Compound 105, 3-fluoro-N′-((1,2,3,5,6,7-hexahydrodicyclopenta[b,e]pyridin-8-yl)carbamoyl)-5-(2-hydroxypropan-2-yl)thiophene-2-sulfonimidamide]
- IC50 (Homo sapiens, THP-1, Table B1, class symbols, read-out: Average IC50 of compounds in hTHP-1 assay: hTHP-1 IC50): 40 to 200 nM

Results, then the compound that gave them:

- IC50 (Homo sapiens, THP-1, Table B4, class symbols, read-out: hTHP-1 IC50): 200 to 1000 nM
Compound: NS(=O)(=NC(=O)Nc1c2c(nc(C3CC3)c1C1CC1)CCC2)c1nn(C(F)F)cc1F (stereo not shown) [Example 737, N′-((2,3-dicyclopropyl-6,7-dihydro-5H-cyclopenta[b]pyridin-4-yl)carbamoyl)-1-(difluoromethyl)-4-fluoro-1H-pyrazole-3-sulfonimidamide]

- IC50 [4]: 5000 to 30000 nM
Compound: CC(C)c1nc2c(cc1NC(=O)N=S(N)(=O)c1cnc(C(C)(C)O)s1)CCC2 (single isomer, unassigned) [Example 701, (R) or (S)-2-(2-Hydroxypropan-2-yl)-N′-((2-isopropyl-6,7-dihydro-5H-cyclopenta[b]pyridin-3-yl)carbamoyl)thiazole-5-sulfonimidamide]

- IC50 [2]: 200 to 1000 nM
Compound: CC1(C)CCc2c1nc1c(c2NC(=O)N=S(N)(=O)c2cnc(C(O)(CO)CO)s2)CCC1 (stereo not shown) [Compound 734, N′-((3,3-dimethyl-1,2,3,5,6,7-hexahydrodicyclopenta[b,e]pyridin-8-yl)carbamoyl)-2-(1,2,3-trihydroxypropan-2-yl)thiazole-5-sulfonimidamide]

- IC50 (Table B3, hTHP-1 assay, class symbols, read-out: IC50): 40 to 200 nM
Compound: C[C@@H]1CCc2c1nc1c(c2NC(=O)N=S(N)(=O)c2nn(C(F)F)cc2F)CCC1 (single isomer, unassigned) [Example 679, (R) or (S)-1-(difluoromethyl)-4-fluoro-N′-(((R)-3-methyl-1,2,3,5,6,7-hexahydrodicyclopenta[b,e]pyridin-8-yl)carbamoyl)-1H-pyrazole-3-sulfonimidamide]

- IC50 [2]: 1000 to 5000 nM
Compound: CC(C)(O)c1ncc(S(N)(=O)=NC(=O)Nc2c3c(nc4c2CCC4CF)CCC3)s1 (stereo not shown) [Compound 702, N′-((3-(fluoromethyl)-1,2,3,5,6,7-hexahydrodicyclopenta[b,e]pyridin-8-yl)carbamoyl)-2-(2-hydroxypropan-2-yl)thiazole-5-sulfonimidamide]

- IC50 (Homo sapiens, THP-1, Table B3, hTHP-1 assay, numeric values, read-out: IC50): > 30000 nM
Compound: Cc1c(C2(C)CC2)nc2c(c1NC(=O)N=S(N)(=O)c1cnc(C(C)(O)CO)s1)CCC2 (stereo not shown) [Example 606, 2-(1,2-Dihydroxypropan-2-yl)-N′-((3-methyl-2-(1-methylcyclopropyl)-6,7-dihydro-5H-cyclopenta[b]pyridin-4-yl)carbamoyl)thiazole-5-sulfonimidamide]

- IC50 [4]: 8 to 40 nM
Compound: C[C@](O)(CO)c1cc(F)c([S@](N)(=O)=NC(=O)Nc2c3c(nc4c2CCC42CC2)CCC3)s1 [Example 678, (R)-5-((S)-1,2-dihydroxypropan-2-yl)-3-fluoro-N′-((1′,5′,6′,7′-tetrahydro-2′H-spiro[cyclopropane-1,3′-dicyclopenta[b,e]pyridin]-8′-yl)carbamoyl)thiophene-2-sulfonimidamide]

- IC50 (Table B3, hTHP-1 assay, class symbols, listed as Compound 984b, read-out: IC50): 40 to 200 nM
Compound: NS(=O)(=NC(=O)Nc1c2c(nc(C(F)(F)F)c1C1CC1)CCC2)c1nn(C(F)F)cc1F (stereo not shown) [Compound 984b]
